Tested on: bEND.3 cells
Experiment: Comparison of passage through intercellular space (standard materials, with or without mannitol)
Format: in vitro ADME, mouse
Conditions: wells treated with mannitol (0.8 M) vs not treated; 20 min intervals over 120 min
Description: The cells were seeded on the inserts of 24-well Transwell plates and cultured for 5 days as described above examples. F—Na (10 μM, Sigma, Cat No. 28803), FD4 (1 mM, Sigma, Cat No. FD4), and FD40 (25 μM, Sigma, Cat No. FD40S), all labeled with fluorescence (FITC), were used as standard materials for intercellular passage comparison. Mannitol (0.8 M), known to interfere with the formation of intercellular tight junctions, was added to some wells while other wells were not treated with mannitol. Thereafter, the standard materials were added to the wells, followed by monitoring the fluorescence intensity in the lower compartment of the Transwell plates at regular intervals of 20 min over 120 min.
F—Na, FD4 and FD40 were 376 Da, 4,000 Da and 40,000 Da in size, respectively. When tight junctions are formed, the materials which can pass between cells are limited by the sizes thereof. Thus, the standard materials may be used as positive or negative controls. For example, when tight junctions are well formed, FD40 differs in passage through intercellular spaces from F—Na and FD4 due to difference in […] size.

O=C([O-])c1ccccc1-c1c2ccc(=O)cc-2oc2cc([O-])ccc12.[Na+].[Na+] [F—Na]
fluorescence intensity in the lower compartment: higher intensities were detected in the wells treated with mannitol
